Experiment: Blood lipid profiling, single-dose part (Supplementary Table 3)
Type: in vivo, human

## Cn1cnc(Cn2c(=O)[nH]/c(=N\c3cc4cn(C)nc4cc3Cl)n(Cc3cc(F)c(F)cc3F)c2=O)n1 [Ensitrelvir, ensitrelvir fumaric acid]
Cohort A 20 mg single dose, Day 2, baseline mean 0.8825
  Triglyceride, Mean (SD): 1.0032 mmol/L
Cohort A 20 mg single dose, Day 2, baseline mean 4.1635
  Cholesterol, Mean (SD): 4.2842 mmol/L
Cohort A 20 mg single dose, Day 2, baseline mean 460.0
  HDL-C, Mean (SD): 458.3 (47.9) mg/L
Cohort A 20 mg single dose, Day 2, baseline mean 993.3
  LDL-C, Mean (SD): 1048.3 mg/L
Cohort A 20 mg single dose, Day 4, baseline mean 0.8825
  Triglyceride, Mean (SD): 1.3643 mmol/L
Cohort A 20 mg single dose, Day 4, baseline mean 4.1635
  Cholesterol, Mean (SD): 4.2668 mmol/L
Cohort A 20 mg single dose, Day 4, baseline mean 460.0
  HDL-C, Mean (SD): 446.7 (63.1) mg/L
Cohort A 20 mg single dose, Day 4, baseline mean 993.3
  LDL-C, Mean (SD): 1026.7 mg/L
Cohort A 20 mg single dose, Day 7/Early termination, baseline mean 0.8825
  Triglyceride, Mean (SD): 1.3852 mmol/L
Cohort A 20 mg single dose, Day 7/Early termination, baseline mean 4.1635
  Cholesterol, Mean (SD): 4.1290 mmol/L
Cohort A 20 mg single dose, Day 7/Early termination, baseline mean 460.0
  HDL-C, Mean (SD): 440.0 (66.9) mg/L
Cohort A 20 mg single dose, Day 7/Early termination, baseline mean 993.3
  LDL-C, Mean (SD): 966.7 mg/L
Cohort A 20 mg single dose, Follow up, baseline mean 0.8825
  Triglyceride, Mean (SD): 0.7037 mmol/L
Cohort A 20 mg single dose, Follow up, baseline mean 4.1635
  Cholesterol, Mean (SD): 3.9048 mmol/L
Cohort A 20 mg single dose, Follow up, baseline mean 460.0
  HDL-C, Mean (SD): 445.0 (70.1) mg/L
Cohort A 20 mg single dose, Follow up, baseline mean 993.3
  LDL-C, Mean (SD): 923.3 mg/L
Cohort B 70 mg single dose, Day 2, baseline mean 1.0330
  Triglyceride, Mean (SD): 1.1478 mmol/L
Cohort B 70 mg single dose, Day 2, baseline mean 4.0987
  Cholesterol, Mean (SD): 4.1463 mmol/L
Cohort B 70 mg single dose, Day 2, baseline mean 436.7
  HDL-C, Mean (SD): 413.3 (42.7) mg/L
Cohort B 70 mg single dose, Day 2, baseline mean 995.0
  LDL-C, Mean (SD): 1041.7 mg/L
Cohort B 70 mg single dose, Day 4, baseline mean 1.0330
  Triglyceride, Mean (SD): 1.4170 mmol/L
Cohort B 70 mg single dose, Day 4, baseline mean 4.0987
  Cholesterol, Mean (SD): 4.0515 mmol/L
Cohort B 70 mg single dose, Day 4, baseline mean 436.7
  HDL-C, Mean (SD): 411.7 (52.3) mg/L
Cohort B 70 mg single dose, Day 4, baseline mean 995.0
  LDL-C, Mean (SD): 946.7 mg/L
Cohort B 70 mg single dose, Day 7/Early termination, baseline mean 1.0330
  Triglyceride, Mean (SD): 1.4393 mmol/L
Cohort B 70 mg single dose, Day 7/Early termination, baseline mean 4.0987
  Cholesterol, Mean (SD): 3.8145 mmol/L
Cohort B 70 mg single dose, Day 7/Early termination, baseline mean 436.7
  HDL-C, Mean (SD): 396.7 (60.2) mg/L
Cohort B 70 mg single dose, Day 7/Early termination, baseline mean 995.0
  LDL-C, Mean (SD): 881.7 mg/L
Cohort B 70 mg single dose, Follow up, baseline mean 1.0330
  Triglyceride, Mean (SD): 0.8882 mmol/L
Cohort B 70 mg single dose, Follow up, baseline mean 4.0987
  Cholesterol, Mean (SD): 3.7368 mmol/L
Cohort B 70 mg single dose, Follow up, baseline mean 436.7
  HDL-C, Mean (SD): 420.0 (55.1) mg/L
Cohort B 70 mg single dose, Follow up, baseline mean 995.0
  LDL-C, Mean (SD): 873.3 mg/L
Cohort C fasted state 250 mg single dose, Day 2 [Day 16], baseline mean 0.9596
  Triglyceride, Mean (SD): 1.3053 mmol/L
Cohort C fasted state 250 mg single dose, Day 2 [Day 16], baseline mean 4.1053
  Cholesterol, Mean (SD): 3.8918 mmol/L
Cohort C fasted state 250 mg single dose, Day 2 [Day 16], baseline mean 486.3
  HDL-C, Mean (SD): 376.3 (81.9) mg/L
Cohort C fasted state 250 mg single dose, Day 2 [Day 16], baseline mean 900.0
  LDL-C, Mean (SD): 916.3 mg/L
Cohort C fasted state 250 mg single dose, Day 4 [Day 18], baseline mean 0.9596
  Triglyceride, Mean (SD): 1.2235 mmol/L
Cohort C fasted state 250 mg single dose, Day 4 [Day 18], baseline mean 4.1053
  Cholesterol, Mean (SD): 3.9695 mmol/L
Cohort C fasted state 250 mg single dose, Day 4 [Day 18], baseline mean 486.3
  HDL-C, Mean (SD): 401.3 (66.4) mg/L
Cohort C fasted state 250 mg single dose, Day 4 [Day 18], baseline mean 900.0
  LDL-C, Mean (SD): 942.5 mg/L
Cohort C fasted state 250 mg single dose, Day 7 [Day 21]/Early termination, baseline mean 0.9596
  Triglyceride, Mean (SD): 1.0571 mmol/L
Cohort C fasted state 250 mg single dose, Day 7 [Day 21]/Early termination, baseline mean 4.1053
  Cholesterol, Mean (SD): 4.0019 mmol/L
Cohort C fasted state 250 mg single dose, Day 7 [Day 21]/Early termination, baseline mean 486.3
  HDL-C, Mean (SD): 438.8 (76.6) mg/L
Cohort C fasted state 250 mg single dose, Day 7 [Day 21]/Early termination, baseline mean 900.0
  LDL-C, Mean (SD): 923.8 mg/L
Cohort C fasted state 250 mg single dose, Follow up (n 4), baseline mean 0.9596
  Triglyceride, Mean (SD): 0.6295 mmol/L
Cohort C fasted state 250 mg single dose, Follow up (n 4), baseline mean 4.1053
  Cholesterol, Mean (SD): 3.9760 mmol/L
Cohort C fasted state 250 mg single dose, Follow up (n 4), baseline mean 486.3
  HDL-C, Mean (SD): 445.0 mg/L
Cohort C fasted state 250 mg single dose, Follow up (n 4), baseline mean 900.0
  LDL-C, Mean (SD): 977.5 mg/L
Cohort D 500 mg single dose, Day 2, baseline mean 0.7507
  Triglyceride, Mean (SD): 1.2928 mmol/L
Cohort D 500 mg single dose, Day 2, baseline mean 4.2838
  Cholesterol, Mean (SD): 3.9005 mmol/L
Cohort D 500 mg single dose, Day 2, baseline mean 546.7
  HDL-C, Mean (SD): 330.0 mg/L
Cohort D 500 mg single dose, Day 2, baseline mean 990.0
  LDL-C, Mean (SD): 951.7 mg/L
Cohort D 500 mg single dose, Day 4, baseline mean 0.7507
  Triglyceride, Mean (SD): 1.1327 mmol/L
Cohort D 500 mg single dose, Day 4, baseline mean 4.2838
  Cholesterol, Mean (SD): 3.8273 mmol/L
Cohort D 500 mg single dose, Day 4, baseline mean 546.7
  HDL-C, Mean (SD): 340.0 (74.8) mg/L
Cohort D 500 mg single dose, Day 4, baseline mean 990.0
  LDL-C, Mean (SD): 950.0 mg/L
Cohort D 500 mg single dose, Day 7/Early termination, baseline mean 0.7507
  Triglyceride, Mean (SD): 0.9937 mmol/L
Cohort D 500 mg single dose, Day 7/Early termination, baseline mean 4.2838
  Cholesterol, Mean (SD): 3.8103 mmol/L
Cohort D 500 mg single dose, Day 7/Early termination, baseline mean 546.7
  HDL-C, Mean (SD): 421.7 (83.8) mg/L
Cohort D 500 mg single dose, Day 7/Early termination, baseline mean 990.0
  LDL-C, Mean (SD): 928.3 mg/L
Cohort D 500 mg single dose, Follow up, baseline mean 0.7507
  Triglyceride, Mean (SD): 0.5627 mmol/L
Cohort D 500 mg single dose, Follow up, baseline mean 4.2838
  Cholesterol, Mean (SD): 3.6505 mmol/L
Cohort D 500 mg single dose, Follow up, baseline mean 546.7
  HDL-C, Mean (SD): 450.0 (85.1) mg/L
Cohort D 500 mg single dose, Follow up, baseline mean 990.0
  LDL-C, Mean (SD): 843.3 mg/L
Cohort E 1000 mg single dose, Day 2, baseline mean 1.0275
  Triglyceride, Mean (SD): 2.3427 mmol/L
Cohort E 1000 mg single dose, Day 2, baseline mean 4.1332
  Cholesterol, Mean (SD): 3.5257 mmol/L
Cohort E 1000 mg single dose, Day 2, baseline mean 413.3
  HDL-C, Mean (SD): 166.7 (45.5) mg/L
Cohort E 1000 mg single dose, Day 2, baseline mean 986.7
  LDL-C, Mean (SD): 840.0 mg/L
Cohort E 1000 mg single dose, Day 4, baseline mean 1.0275
  Triglyceride, Mean (SD): 1.9683 mmol/L
Cohort E 1000 mg single dose, Day 4, baseline mean 4.1332
  Cholesterol, Mean (SD): 3.2498 mmol/L
Cohort E 1000 mg single dose, Day 4, baseline mean 413.3
  HDL-C, Mean (SD): 180.0 (52.5) mg/L
Cohort E 1000 mg single dose, Day 4, baseline mean 986.7
  LDL-C, Mean (SD): 800.0 mg/L
Cohort E 1000 mg single dose, Day 7/Early termination, baseline mean 1.0275
  Triglyceride, Mean (SD): 1.2210 mmol/L
Cohort E 1000 mg single dose, Day 7/Early termination, baseline mean 4.1332
  Cholesterol, Mean (SD): 3.7628 mmol/L
Cohort E 1000 mg single dose, Day 7/Early termination, baseline mean 413.3
  HDL-C, Mean (SD): 303.3 (61.5) mg/L
Cohort E 1000 mg single dose, Day 7/Early termination, baseline mean 986.7
  LDL-C, Mean (SD): 1003.3 mg/L
Cohort E 1000 mg single dose, Follow up, baseline mean 1.0275
  Triglyceride, Mean (SD): 0.7565 mmol/L
Cohort E 1000 mg single dose, Follow up, baseline mean 4.1332
  Cholesterol, Mean (SD): 3.7410 mmol/L
Cohort E 1000 mg single dose, Follow up, baseline mean 413.3
  HDL-C, Mean (SD): 343.3 (47.2) mg/L
Cohort E 1000 mg single dose, Follow up, baseline mean 986.7
  LDL-C, Mean (SD): 988.3 mg/L
Cohort J 2000 mg single dose, Day 2, baseline mean 0.9975
  Triglyceride, Mean (SD): 2.0737 mmol/L
Cohort J 2000 mg single dose, Day 2, baseline mean 4.4608
  Cholesterol, Mean (SD): 3.9952 mmol/L
Cohort J 2000 mg single dose, Day 2, baseline mean 543.3
  HDL-C, Mean (SD): 225.0 (76.6) mg/L
Cohort J 2000 mg single dose, Day 2, baseline mean 1051.7
  LDL-C, Mean (SD): 901.7 mg/L
Cohort J 2000 mg single dose, Day 4, baseline mean 0.9975
  Triglyceride, Mean (SD): 1.7668 mmol/L
Cohort J 2000 mg single dose, Day 4, baseline mean 4.4608
  Cholesterol, Mean (SD): 3.4133 mmol/L
Cohort J 2000 mg single dose, Day 4, baseline mean 543.3
  HDL-C, Mean (SD): 171.7 (55.6) mg/L
Cohort J 2000 mg single dose, Day 4, baseline mean 1051.7
  LDL-C, Mean (SD): 865.0 mg/L
Cohort J 2000 mg single dose, Day 7/Early termination, baseline mean 0.9975
  Triglyceride, Mean (SD): 0.7867 mmol/L
Cohort J 2000 mg single dose, Day 7/Early termination, baseline mean 4.4608
  Cholesterol, Mean (SD): 3.9437 mmol/L
Cohort J 2000 mg single dose, Day 7/Early termination, baseline mean 543.3
  HDL-C, Mean (SD): 253.3 mg/L
Cohort J 2000 mg single dose, Day 7/Early termination, baseline mean 1051.7
  LDL-C, Mean (SD): 1135.0 mg/L
Cohort J 2000 mg single dose, Follow up, baseline mean 0.9975
  Triglyceride, Mean (SD): 0.4255 mmol/L
Cohort J 2000 mg single dose, Follow up, baseline mean 4.4608
  Cholesterol, Mean (SD): 3.7112 mmol/L
Cohort J 2000 mg single dose, Follow up, baseline mean 543.3
  HDL-C, Mean (SD): 405.0 (45.9) mg/L
Cohort J 2000 mg single dose, Follow up, baseline mean 1051.7
  LDL-C, Mean (SD): 951.7 mg/L

Source: paper PMC9578392, “Safety, Tolerability, and Pharmacokinetics of the Novel Antiviral Agent Ensitrelvir Fumaric Acid, a SARS-CoV-2 3CL Protease Inhibitor, in Healthy Adults” (Antimicrobial Agents and Chemotherapy, 2022)
